Experimental findings from ChEMBL document CHEMBL3879909, “Piperidin-4-yl azetidine derivatives as JAK1 inhibitors” (2014) are described below.

A value given as a limit tells only on which side of the number the result lay.

One test is filed under the species Homo sapiens. Kind of test: Selectivity ratio of IC50 for human N-terminal His-tagged JAK2 catalytic domain (828 to 1132 residues) to IC50 for human N-terminal His-tagged JAK1 catalytic domain (837 to 1142 residues).
The target in test [1] is Tyrosine-protein kinase JAK1 (Homo sapiens, UniProt P23458). Kind of test: Inhibition of human N-terminal His-tagged JAK1 catalytic domain (837 to 1142 residues) expressed in baculovirus infected insect cells assessed as decrease in phosphorylation of biotinylated peptide substrate after 1 hr in presence of 1 mM ATP by HTRF method. Background: In TR-FRET formats the signal depends on donor and acceptor labels being close together.

The target in test [2] is Tyrosine-protein kinase JAK2 (Homo sapiens, UniProt O60674). In words: Inhibition of human N-terminal His-tagged JAK2 catalytic domain (828 to 1132 residues) expressed in baculovirus infected insect cells assessed as decrease in phosphorylation of biotinylated peptide substrate after 1 hr in presence of 1 mM ATP by HTRF method.
Chain of Tyrosine-protein kinase JAK2 (O60674 whole entry, the tested form may be a part): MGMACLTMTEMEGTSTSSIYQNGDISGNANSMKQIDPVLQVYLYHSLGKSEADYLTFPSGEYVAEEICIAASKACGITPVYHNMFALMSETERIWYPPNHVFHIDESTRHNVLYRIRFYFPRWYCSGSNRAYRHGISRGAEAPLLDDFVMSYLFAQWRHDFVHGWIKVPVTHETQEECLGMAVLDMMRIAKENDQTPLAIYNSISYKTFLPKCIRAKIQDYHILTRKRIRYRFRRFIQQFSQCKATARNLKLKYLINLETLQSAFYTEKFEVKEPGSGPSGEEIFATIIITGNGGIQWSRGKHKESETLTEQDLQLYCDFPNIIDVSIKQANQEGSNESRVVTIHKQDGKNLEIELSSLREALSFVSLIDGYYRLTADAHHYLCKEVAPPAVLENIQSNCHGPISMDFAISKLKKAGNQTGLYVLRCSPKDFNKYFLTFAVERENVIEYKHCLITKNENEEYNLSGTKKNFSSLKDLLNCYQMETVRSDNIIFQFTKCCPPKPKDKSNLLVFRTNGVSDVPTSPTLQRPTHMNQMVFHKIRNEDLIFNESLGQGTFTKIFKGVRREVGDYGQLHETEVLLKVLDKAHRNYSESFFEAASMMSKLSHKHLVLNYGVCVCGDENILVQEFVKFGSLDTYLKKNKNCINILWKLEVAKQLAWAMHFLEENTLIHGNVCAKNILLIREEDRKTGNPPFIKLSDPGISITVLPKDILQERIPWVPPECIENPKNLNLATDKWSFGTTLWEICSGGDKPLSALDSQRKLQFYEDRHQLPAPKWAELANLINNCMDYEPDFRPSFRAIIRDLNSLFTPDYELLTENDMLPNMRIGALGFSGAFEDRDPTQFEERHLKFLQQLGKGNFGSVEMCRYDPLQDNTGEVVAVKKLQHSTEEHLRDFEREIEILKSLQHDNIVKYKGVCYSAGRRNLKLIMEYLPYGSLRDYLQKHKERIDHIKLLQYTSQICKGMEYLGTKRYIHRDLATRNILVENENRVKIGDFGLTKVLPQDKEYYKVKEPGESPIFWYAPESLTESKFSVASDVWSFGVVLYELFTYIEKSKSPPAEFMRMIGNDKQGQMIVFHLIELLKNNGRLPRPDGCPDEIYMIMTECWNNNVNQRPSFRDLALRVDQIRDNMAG

Chain of Tyrosine-protein kinase JAK1 (P23458 whole entry, the tested form may be a part): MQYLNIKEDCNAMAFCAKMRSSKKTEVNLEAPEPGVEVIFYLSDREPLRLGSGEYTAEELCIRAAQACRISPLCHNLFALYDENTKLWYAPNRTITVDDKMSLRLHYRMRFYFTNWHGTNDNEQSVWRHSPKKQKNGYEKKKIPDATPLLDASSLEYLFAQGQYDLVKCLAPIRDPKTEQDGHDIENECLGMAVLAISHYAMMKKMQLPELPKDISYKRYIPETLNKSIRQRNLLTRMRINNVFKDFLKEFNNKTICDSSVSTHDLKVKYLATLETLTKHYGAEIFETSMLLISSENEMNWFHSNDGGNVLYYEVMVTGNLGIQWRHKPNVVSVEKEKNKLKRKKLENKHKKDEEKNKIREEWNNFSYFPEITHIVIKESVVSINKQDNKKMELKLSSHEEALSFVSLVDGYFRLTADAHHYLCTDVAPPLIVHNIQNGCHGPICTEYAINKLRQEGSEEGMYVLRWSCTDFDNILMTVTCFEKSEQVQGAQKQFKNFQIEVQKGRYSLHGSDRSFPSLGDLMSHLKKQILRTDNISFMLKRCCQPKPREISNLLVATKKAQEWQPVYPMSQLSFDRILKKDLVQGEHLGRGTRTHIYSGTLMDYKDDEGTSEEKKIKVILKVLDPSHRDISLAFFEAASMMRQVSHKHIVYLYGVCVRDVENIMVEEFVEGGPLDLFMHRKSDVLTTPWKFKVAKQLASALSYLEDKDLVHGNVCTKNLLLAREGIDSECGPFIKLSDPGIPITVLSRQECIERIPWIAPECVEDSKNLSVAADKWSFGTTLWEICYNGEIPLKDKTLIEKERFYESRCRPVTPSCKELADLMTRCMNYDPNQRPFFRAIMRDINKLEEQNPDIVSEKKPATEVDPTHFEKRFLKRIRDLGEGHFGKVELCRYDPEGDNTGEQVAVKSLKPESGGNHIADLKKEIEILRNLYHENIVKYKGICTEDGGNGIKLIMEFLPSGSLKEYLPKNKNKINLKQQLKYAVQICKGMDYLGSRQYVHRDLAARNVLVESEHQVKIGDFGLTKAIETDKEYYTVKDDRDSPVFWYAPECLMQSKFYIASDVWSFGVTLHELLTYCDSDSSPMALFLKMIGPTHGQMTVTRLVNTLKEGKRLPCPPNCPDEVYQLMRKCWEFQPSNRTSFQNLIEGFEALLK

For the molecule `N#CCC1(n2cc(-c3ncnc4[nH]ccc34)cn2)CN(C2CCN(C(=O)Nc3cnccc3C(F)(F)F)CC2)C1`, the Ratio IC50 in the test filed under Homo sapiens lay in the range of 10.4 to 20.3.
Take `CO[C@@H]1CN(C(=O)c2ccnc(C(F)(F)F)c2F)CC[C@@H]1N1CC(CC#N)(n2cc(-c3ncnc4[nH]ccc34)cn2)C1` (relative stereo): the Ratio IC50 in the test filed under Homo sapiens was determined as 59.2. Moreover, the results for the IC50 in test [1] and in test [2] were at most 5 nM and over 100 nM, respectively.
For `N#CCC1(n2cc(-c3ccnc4[nH]ccc34)cn2)CN(C2CCN(C(=O)c3ccnc(C(F)(F)F)c3F)CC2)C1` the same measures were 21.4, 5 to 20 nM and over 100 nM.
With `N#CCC1(n2cc(-c3ncnc4[nH]ccc34)cn2)CN(C2CCN(C(=O)OCc3cc(F)cc(F)c3)CC2)C1`, the Ratio IC50 in the test filed under Homo sapiens was 7.1 to 24.4.
